Legend:
[1] = biological target: Adenylate cyclase type 5 (Homo sapiens) (UniProt O95622); assay: Compound was evaluated for the elicited effect on adenylate cyclase activity in homogenates of carp retina at 10 uM; assay type: functional, tissue-based; conditions: Cyprinus carpio
[2] = system: Papio papio; assay: Duration of protection for abolition of myoclonic responses to photic stimulation in the baboon (Papio papio) at 0.2 mg/kg; Duration of protection ranges from 180-300 min; assay type: functional
[3] = species on record: Mus musculus; assay: Evaluated for audiogenic seizures in DBA/ 2 mice, in the protection against paroxysimal EEG at an interval of 30 minutes; assay type: functional; conditions: 0.5 h
[4] = system: Papio papio; assay: Duration of protection for abolition of myoclonic responses to photic stimulation in the baboon (Papio papio) at 0.5 mg/kg; Duration of protection ranges from 30-45 min; assay type: functional
[5] = species on record: Mus musculus; assay: Evaluated for audiogenic seizures in DBA/ 2 mice, in the protection against paroxysimal EEG at an interval of 20 minutes; assay type: functional
[6] = species on record: Mus musculus; assay: Evaluated for audiogenic seizures in DBA/ 2 mice, in the protection against paroxysimal EEG at an interval of 60 minutes; assay type: functional; conditions: 1 h
[7] = system: Papio papio; assay: Duration of protection for abolition of myoclonic responses to photic stimulation in the baboon (Papio papio) at 0.2 mg/kg; assay type: functional

Chain of Adenylate cyclase type 5 (Homo sapiens) (O95622 whole entry, looked up): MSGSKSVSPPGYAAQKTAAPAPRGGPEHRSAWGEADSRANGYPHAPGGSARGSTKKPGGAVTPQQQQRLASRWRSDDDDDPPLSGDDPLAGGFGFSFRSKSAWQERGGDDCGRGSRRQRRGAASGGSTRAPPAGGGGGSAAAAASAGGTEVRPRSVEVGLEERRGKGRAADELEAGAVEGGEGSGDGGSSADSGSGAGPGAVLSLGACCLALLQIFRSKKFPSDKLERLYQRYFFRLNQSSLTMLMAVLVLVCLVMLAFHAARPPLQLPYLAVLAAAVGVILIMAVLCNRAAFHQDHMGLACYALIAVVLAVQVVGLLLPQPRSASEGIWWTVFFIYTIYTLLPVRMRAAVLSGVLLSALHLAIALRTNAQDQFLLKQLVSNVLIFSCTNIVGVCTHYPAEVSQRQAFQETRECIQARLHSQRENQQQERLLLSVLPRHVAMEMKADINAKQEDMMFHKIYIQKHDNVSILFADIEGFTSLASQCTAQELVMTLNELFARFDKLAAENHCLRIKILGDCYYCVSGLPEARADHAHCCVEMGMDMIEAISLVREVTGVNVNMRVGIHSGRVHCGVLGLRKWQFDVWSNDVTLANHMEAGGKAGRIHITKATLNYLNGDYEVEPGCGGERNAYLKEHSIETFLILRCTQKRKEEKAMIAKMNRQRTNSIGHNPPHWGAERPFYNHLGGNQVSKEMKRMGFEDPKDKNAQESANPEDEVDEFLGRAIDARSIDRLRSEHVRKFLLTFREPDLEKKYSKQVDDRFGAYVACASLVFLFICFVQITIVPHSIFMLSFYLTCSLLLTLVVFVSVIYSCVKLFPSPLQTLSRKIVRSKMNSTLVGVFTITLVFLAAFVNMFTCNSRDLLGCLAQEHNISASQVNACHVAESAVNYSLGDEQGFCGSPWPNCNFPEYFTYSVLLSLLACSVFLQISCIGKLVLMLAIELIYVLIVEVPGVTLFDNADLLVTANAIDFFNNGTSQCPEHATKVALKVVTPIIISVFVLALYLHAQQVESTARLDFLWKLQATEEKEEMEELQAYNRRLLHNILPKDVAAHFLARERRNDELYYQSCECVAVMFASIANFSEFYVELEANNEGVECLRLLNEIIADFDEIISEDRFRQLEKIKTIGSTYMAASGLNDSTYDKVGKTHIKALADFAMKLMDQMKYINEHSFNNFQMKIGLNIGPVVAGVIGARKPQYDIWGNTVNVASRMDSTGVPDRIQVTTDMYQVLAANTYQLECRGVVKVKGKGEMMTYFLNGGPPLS

## CCCN1CCc2cc(O)cc3c2[C@H]1Cc1ccc(O)c(O)c1-3
[1]
  Response: 43.4%
[2]
  Duration: 180 min
[3]
  ED50: 0.72 mg/kg

## CN1CCc2cccc3c2[C@H]1Cc1ccc(O)c(O)c1-3 [APOMORPHINE]
[4]
  Duration: 30 min
[5]
  ED50: 0.7 mg/kg

## CC(C)C[C@H]1C(=O)N2CCC[C@H]2[C@]2(O)O[C@](NC(=O)[C@@H]3C=C4c5cccc6[nH]c(Br)c(c56)C[C@H]4N(C)C3)(C(C)C)C(=O)N12 [BROMOCRIPTINE]
[6]
  ED50: 5 mg/kg

## CCCN1CCc2cccc3c2[C@H]1Cc1ccc(O)c(O)c1-3 [R-N-PROPYLNORAPOMORPHINE]
[3]
  ED50: 0.075 mg/kg
[7]
  Duration: 180 min

Reference: ChEMBL document CHEMBL1121670, “Aporphines. 34. (-)-2,10,11-Trihydroxy-N-n-propylnoraporphine, a novel dopaminergic aporphine alkaloid with anticonvulsant activity” (1981)
